A short description of data set [1]: Microsomal half-life / microsomal clearance, rat liver microsomes. In kind it is in vitro ADME. The following applies: 0.5 μM test substance, 0.25 mg protein/ml, pH 7.4, 37° C. On the procedure: (§1) The metabolic stability of the compounds of the invention was determined in the following assay. The test substances were incubated in a concentration of 0.5 μM as follows: 0.5 μM test substance are preincubated together with liver microsomes from different species (from rat, human or other species) (0.25 mg of microsomal protein/ml) in 0.05 M potassium phosphate buffer of pH 7.4 in microtiter plates at 37° C. for 5 min. The reaction is started by adding NADPH (1 mg/mL). After 0, 5, 10, 15, 20 and 30 min, 50 μl aliquots are removed, and the reaction is immediately stopped and cooled with the same volume of acetonitrile. The samples are frozen until analyzed. The remaining concentration of undegraded test substance is determined by MSMS. The half-life (T½) is determined from the gradient of the signal of test substance/unit time plot, it being possible to calculate the half-life of the test substance, assuming first order kinetics, from the decrease in the concentration of the compound with time. The microsomal clearance (mCl) is calculated from mCl=ln 2/T½/(content of microsomal protein in mg/ml)×1000 [ml/min/mg] (modified from references: Di, The Society for Bimolecular Screening, 2003, 453-462; Obach, D M D, 1999 vol 27. N 11, 1350-1359).
(In general: Microsomes from liver hold many membrane-bound enzymes, among them those of drug oxidation.)

A short description of data set [2]: Microsomal half-life / microsomal clearance, human liver microsomes. Conditions: 0.5 μM test substance, 0.25 mg protein/ml, pH 7.4, 37° C. In kind it is in vitro ADME. On the procedure:
as §1

Data set [3] has as its system rats. Conditions: cited from earlier work.
Data set [4] has as its system rats. The following applies: cited from earlier work. This is another data set of the same source.
Data set [5] relates to rats. The following applies: cited from earlier work. This is another data set of the same source.

On to `CCCc1nc(C)c2c(C)nc3scnc3n12` [Example 1, 5,6-Dimethyl-8-propyl-3-thia-1,4,7,8a-tetraaza-as-indacene], for which, in data set [1], the “Rat mCl” value is “+ (+: 100-220 μl min^−1 mg^−1)”. Also, the “Human mCl” value in data set [2] is listed as “++ (++: <100 μl min^−1 mg^−1)”.
The corresponding values for `Cc1ccc(-c2nc(C)c3c(C)nc4scnc4n23)cn1` [Example 11, 5,6-Dimethyl-8-(6-methyl-pyridin-3-yl)-3-thia-1,4,7,8a-tetraaza-as-indacene] are “+ (+: 100-220 μl min^−1 mg^−1)” and “+ (+: 100-220 μl min^−1 mg^−1)”.
The corresponding values for `Cc1nc(-c2cccc(C(N)=O)c2)n2c1c(C)nc1scnc12` [Example 8, 3-(5,6-Dimethyl-3-thia-1,4,7,8a-tetraaza-as-indacen-8-yl)-benzamide] are “++ (++: <100 μl min^−1 mg^−1)” and “++ (++: <100 μl min^−1 mg^−1)”.
In the case of `Cc1ncccc1-c1nc(C)c2c(C)nc3scnc3n12` [Example 9, 5,6-Dimethyl-8-(2-methyl-pyridin-3-yl)-3-thia-1,4,7,8a-tetraaza-as-indacene], the “Rat mCl” value in data set [1] is on record as “++ (++: <100 μl min^−1 mg^−1)”. For the same molecule, the “Human mCl” value in data set [2] is “++ (++: <100 μl min^−1 mg^−1)”.
For the molecule `CCCc1nc(C)c2c(C)nc3sc(C)nc3n12` [Example 3, 2,5,6-Trimethyl-8-propyl-3-thia-1,4,7,8a-tetraaza-as-indacene], in data set [1], the “Rat mCl” value is on record as “∘ (∘: >220 μl min^−1 mg^−1)”. In data set [2], the “Human mCl” value was “+ (+: 100-220 μl min^−1 mg^−1)”.
The like results for `CCCc1nc(C)c2c(C)nc3sc(OC)nc3n12` [Example 5, 2-Methoxy-5,6-dimethyl-8-propyl-3-thia-1,4,7,8a-tetraaza-as-indacene] were, in that order, “∘ (∘: >220 μl min^−1 mg^−1)” and “∘ (∘: >220 μl min^−1 mg^−1)”.
As for `COc1ccc(Cc2nccc3cc(OC)c(OC)cc23)cc1OC` [Papaverine, papaverine], the “hyperactivity induced by PCP” value in the data set on rats [3] is reported as “reduced hyperactivity”. For the same molecule, the “effect on the cataleptic effect of haloperidol” value in the data set on rats [4] (with D2 receptor antagonist haloperidol) was “potentiated the cataleptic effect”. Besides, the “catalepsy on its own” value with rats [4] (without haloperidol) was “did not cause catalepsy”. Moreover, the “reduction of amphetamine-induced hyperactivity” value in the data set with rats [5] is “insignificant”.
